This passage reports IC50 and inhibition results from patent US7135466B2 (Kirin Beer Kabushiki Kaisha, priority 1999, dated 2006).

Broadly, the IC50 is the concentration needed to halve the response being measured. By inhibition is commonly meant the percentage by which the read-out fell short of the control.

One test deals with T1, c-kit (Homo sapiens, UniProt P10721).
T1 construct: MO7e (human megakaryocytic leukemia cell line) which had been arrested for 20 hr; endogenous in cells; host or cells: MO7e human megakaryocytic leukemia cell line
T1 sequence (P10721 26-976): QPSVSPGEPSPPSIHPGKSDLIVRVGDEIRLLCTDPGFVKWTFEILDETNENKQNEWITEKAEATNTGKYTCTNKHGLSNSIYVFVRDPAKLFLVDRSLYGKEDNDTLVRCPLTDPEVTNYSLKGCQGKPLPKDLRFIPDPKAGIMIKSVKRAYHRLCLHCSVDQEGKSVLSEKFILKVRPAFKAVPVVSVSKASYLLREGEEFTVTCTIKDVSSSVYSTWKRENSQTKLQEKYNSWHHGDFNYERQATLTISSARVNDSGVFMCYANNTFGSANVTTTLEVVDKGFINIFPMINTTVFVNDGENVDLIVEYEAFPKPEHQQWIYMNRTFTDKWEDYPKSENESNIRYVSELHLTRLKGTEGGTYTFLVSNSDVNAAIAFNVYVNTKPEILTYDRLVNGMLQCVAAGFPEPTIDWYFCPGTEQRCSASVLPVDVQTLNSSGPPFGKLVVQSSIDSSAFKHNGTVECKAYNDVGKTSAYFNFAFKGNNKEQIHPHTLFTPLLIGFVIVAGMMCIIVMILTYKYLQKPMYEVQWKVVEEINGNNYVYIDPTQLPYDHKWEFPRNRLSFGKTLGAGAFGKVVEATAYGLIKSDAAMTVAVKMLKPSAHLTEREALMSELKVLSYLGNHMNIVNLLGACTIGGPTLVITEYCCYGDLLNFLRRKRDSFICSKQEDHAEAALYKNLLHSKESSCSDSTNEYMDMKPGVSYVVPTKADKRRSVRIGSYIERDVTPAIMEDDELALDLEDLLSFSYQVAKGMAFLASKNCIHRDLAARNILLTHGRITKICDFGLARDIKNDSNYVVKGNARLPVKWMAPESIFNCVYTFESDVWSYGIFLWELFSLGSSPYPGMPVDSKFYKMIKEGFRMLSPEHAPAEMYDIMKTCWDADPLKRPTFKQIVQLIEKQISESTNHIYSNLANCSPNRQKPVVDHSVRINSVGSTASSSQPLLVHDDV
In words: Inhibitory activity against c-kit autophosphorylation (MO7e cells, h-SCF). The class given is cell-based. The note with it: MO7e cells, h-SCF stimulation; read-out: c-kit IC50. Put shortly:
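Growth-arrested (20 hr) MO7e; cpd in DMSO, 1 hr; h-SCF 50 ng/ml, 5 min; lyse. ELISA: anti-pTyr (PY-20) capture, anti-c-kit 1° Ab, HRP anti-rabbit 2° Ab, A450.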
For `COc1cc2ncnc(Oc3ccc(NC(=S)NC(=O)c4cccc(Br)c4)cc3)c2cc1OC` [Example 958, N-(3-Bromobenzoyl)-N′-{4-[(6,7-dimethoxy-4-quinazolinyl)oxy]phenyl}thiourea], the IC50 was 194 nM. On the same count and under the same terms, the same measure for `COc1cc2nccc(Oc3ccc(NC(=S)NC(=O)c4ccc(Cl)cc4)cc3)c2cc1OC` [Example 960, N-(4-Chlorobenzoyl)-N′-{4-[(6,7-dimethoxy-4-quinolyl)oxy]phenyl}thiourea]: 629 nM; for `COc1cc2nccc(Oc3ccc(NC(=S)NC(=O)c4ccc(F)cc4)cc3)c2cc1OC` [Example 961, N-{4-[(6,7-Dimethoxy-4-quinolyl)oxy]phenyl}-N′-(4-fluorobenzoyl)thiourea]: 740 nM.

As for `COc1ccc(C(=O)NC(=S)Nc2ccc(Oc3ccnc4cc(OC)c(OC)cc34)cc2)cc1` [Example 963, N-{4-[(6,7-Dimethoxy-4-quinolyl)oxy]phenyl}-N′-(4-methoxybenzoyl)thiourea], the IC50 came out at 701 nM.

Consider `COc1cc2nccc(Oc3ccc(NC(=S)NC(=O)c4ccc(F)cc4)c(F)c3)c2cc1OC` [Example 966, N-{4-[(6,7-Dimethoxy-4-quinolyl)oxy]-2-fluorophenyl}-N′-(4-fluorobenzoyl)thiourea], for which the IC50 was 233 nM. Still for that read-out and setting: the same measure for `COc1cc2nccc(Oc3ccc(NC(=S)NC(=O)c4ccc(C)cc4)cc3F)c2cc1OC` [Example 970, N-{4-[(6,7-Dimethoxy-4-quinolyl)oxy]-3-fluorophenyl}-N′-(4-methylbenzoyl)thiourea]: 300 nM; for `COc1cc2nccc(Oc3ccc(NC(=S)NC(=O)c4ccc(Cl)cc4)cc3F)c2cc1OC` [Example 971, N-(4-Chlorobenzoyl)-N′-{4-[(6,7-dimethoxy-4-quinolyl)oxy]-3-fluorophenyl}thiourea]: 523 nM. `COc1cc2nccc(Oc3ccc(NC(=S)NC(=O)c4ccc(F)cc4)cc3F)c2cc1OC` [Example 972, N-{4-[(6,7-Dimethoxy-4-quinolyl)oxy]-3-fluorophenyl}-N′-(4-fluorobenzoyl)thiourea]: the half-maximal inhibitory concentration (IC50) was found to be 532 nM. For the compound `COc1cc2nccc(Oc3ccc(NC(=S)NC(=O)c4ccc([N+](=O)[O-])cc4)cc3F)c2cc1OC` [Example 975, N-{4-[(6,7-Dimethoxy-4-quinolyl)oxy]-3-fluorophenyl}-N′-(4-nitrobenzoyl)thiourea], the IC50 was 290 nM. The same measure, in the same setting: the same measure for `COc1ccc(C(=O)NC(=S)Nc2ccc(Oc3ccnc4cc(OC)c(OC)cc34)c(F)c2)cc1` [Example 976, N-{4-[(6,7-Dimethoxy-4-quinolyl)oxy]-3-fluorophenyl}-N′-(4-methoxybenzoyl)thiourea]: 788 nM; for `COc1cc2nccc(Oc3ccc(NC(=S)NC(=O)c4ccc(C)cc4)cc3Cl)c2cc1OC` [Example 977, N-{3-Chloro-4-[(6,7-dimethoxy-4-quinolyl)oxy]phenyl}-N′-(4-methylbenzoyl)thiourea]: 824 nM; for `COc1cc2nccc(Oc3ccc(NC(=S)NC(=O)c4ccc(Br)cc4)cc3Cl)c2cc1OC` [Example 980, N-(4-Bromobenzoyl)-N′-{3-chloro-4-[(6,7-dimethoxy-4-quinolyl)oxy]phenyl}thiourea]: 811 nM. For `COc1cc2ncnc(Oc3ccc(NC(=S)NC(=O)c4ccc(F)cc4)cc3)c2cc1OC` [Example 986, N-{4-[(6,7-Dimethoxy-4-quinazolinyl)oxy]phenyl}-N′-(4-fluorobenzoyl)thiourea], the IC50 came out at 264 nM.

The test is the same for the next values; noted with them: Mo7e, figure in parentheses in −( ); at 1000 nM.
For the compound `COc1cc2nccc(Oc3ccc(NC(=S)NC(=O)c4ccc([N+](=O)[O-])cc4)cc3)c2cc1OC` [Example 962, N-{4-[(6,7-Dimethoxy-4-quinolyl)oxy]phenyl}-N′-(4-nitrobenzoyl)thiourea], the inhibition at 1 µM was 35%. The same measure, in the same setting: as for `COc1cc2nccc(Oc3ccc(NC(=S)NC(=O)c4ccc(C)cc4)c(F)c3)c2cc1OC` [Example 964, N-{4-[(6,7-Dimethoxy-4-quinolyl)oxy]-2-fluorophenyl}-N′-(4-methylbenzoyl)thiourea], the figure is 46%. With `COc1cc2nccc(Oc3ccc(NC(=S)NC(=O)c4ccc(Cl)cc4)c(F)c3)c2cc1OC` [Example 965, N-(4-Chlorobenzoyl)-N′-{4-[(6,7-dimethoxy-4-quinolyl)oxy]-2-fluorophenyl}thiourea], the inhibition at 1 µM was found to be 24%.

For the compound `COc1cc2nccc(Oc3ccc(NC(=S)NC(=O)c4ccc([N+](=O)[O-])cc4)c(F)c3)c2cc1OC` [Example 968, N-{4-[(6,7-Dimethoxy-4-quinolyl)oxy]-2-fluorophenyl}-N′-(4-nitrobenzoyl)thiourea], the inhibition at 1 µM turned out to be 27%. As to `COc1ccc(C(=O)NC(=S)Nc2ccc(Oc3ccnc4cc(OC)c(OC)cc34)cc2F)cc1` [Example 969, N-{4-[(6,7-Dimethoxy-4-quinolyl)oxy]-2-fluorophenyl}-N′-(4-methoxybenzoyl)thiourea], the inhibition at 1 µM is 19%. Same read-out and setting: as for `COc1cc2nccc(Oc3ccc(NC(=S)NC(=O)c4ccc(Br)cc4)cc3F)c2cc1OC` [Example 973, N-(4-Bromobenzoyl)-N′-{4-[(6,7-dimethoxy-4-quinolyl)oxy]-3-fluorophenyl}thiourea], the figure is 0%; as for `COc1cc2nccc(Oc3ccc(NC(=S)NC(=O)c4ccc(I)cc4)cc3F)c2cc1OC` [Example 974, N-{4-[(6,7-Dimethoxy-4-quinolyl)oxy]-3-fluorophenyl}-N′-(4-iodobenzoyl)thiourea], 34%. Same read-out and setting: as for `COc1cc2nccc(Oc3ccc(NC(=S)NC(=O)c4ccc(Cl)cc4)cc3Cl)c2cc1OC` [Example 978], the figure is 22%; as for `COc1cc2nccc(Oc3ccc(NC(=S)NC(=O)c4ccc(F)cc4)cc3Cl)c2cc1OC` [Example 979, N-{3-Chloro-4-[(6,7-dimethoxy-4-quinolyl)oxy]phenyl}-N′-(4-fluorobenzoyl)thiourea], 25%. The same measure, in the same setting: the same measure for `COc1cc2nccc(Oc3ccc(NC(=S)NC(=O)c4ccc(I)cc4)cc3Cl)c2cc1OC` [Example 981, N-{3-Chloro-4-[(6,7-dimethoxy-4-quinolyl)oxy]phenyl}-N′-(4-iodobenzoyl)thiourea]: 47%; for `COc1cc2nccc(Oc3ccc(NC(=S)NC(=O)c4ccc([N+](=O)[O-])cc4)cc3Cl)c2cc1OC` [Example 982, N-{3-Chloro-4-[(6,7-dimethoxy-4-quinolyl)oxy]phenyl}-N′-(4-nitrobenzoyl)thiourea]: 18%; for `COc1ccc(C(=O)NC(=S)Nc2ccc(Oc3ccnc4cc(OC)c(OC)cc34)c(Cl)c2)cc1` [Example 983, N-{3-Chloro-4-[(6,7-dimethoxy-4-quinolyl)oxy]phenyl}-N′-(4-methoxybenzoyl)thiourea]: 39%. `COc1cc2ncnc(Oc3ccc(NC(=S)NC(=O)c4ccc(C)cc4)cc3)c2cc1OC` [Example 984, N-{4-[(6,7-Dimethoxy-4-quinazolinyl)oxy]phenyl}-N′-(4-methylbenzoyl)thiourea]: the inhibition at 1 µM amounted to 30%.

As for `COc1cc2ncnc(Oc3ccc(NC(=S)NC(=O)c4ccc(Cl)cc4)cc3)c2cc1OC` [Example 985, N-(4-Chlorobenzoyl)-N′-{4-[(6,7-dimethoxy-4-quinazolinyl)oxy]phenyl}thiourea], the inhibition at 1 µM worked out at 31%.
